According to US9422297B2, “Tricyclic compounds having cytostatic and/or cytotoxic activity and methods of use thereof” (Duquesne University of the Holy Ghost, priority 2007, dated 2016):

Legend:
EGFR kinase = EGFR kinase (Homo sapiens (Human), UniProt P00533); assay: EGFR kinase inhibition; assay type: biochemical; conditions: Table 3; read-out: EGFR kinase
Flk-1 kinase = Flk-1 kinase (Homo sapiens (Human), UniProt P35968); assay: Flk-1 kinase inhibition; assay type: biochemical; conditions: Table 3
B16-F10 tumors = assay: B16-F10 tumor model in vivo; conditions: athymic mice, 25 mg/kg three times weekly, vs methotrexate and sham
HOP-52 = assay: NCI In-Vitro Testing, Non-Small Cell Lung Cancer; assay type: cell-based
KM12 = assay: NCI In-Vitro Testing, Colon Cancer; assay type: cell-based
SF-258 = assay: NCI In-Vitro Testing, CNS Cancer; assay type: cell-based
SNB-19 = assay: NCI In-Vitro Testing, CNS Cancer; assay type: cell-based
U251 = assay: NCI In-Vitro Testing, CNS Cancer; assay type: cell-based
SK-MEL-2 = assay: NCI In-Vitro Testing, Melanoma; assay type: cell-based
SK-MEL-5 = assay: NCI In-Vitro Testing, Melanoma; assay type: cell-based
OVCAR-4 = assay: NCI In-Vitro Testing, Ovarian Cancer; assay type: cell-based
OVCAR-6 = assay: NCI In-Vitro Testing, Ovarian Cancer; assay type: cell-based
SK-OV-3 = assay: NCI In-Vitro Testing, Ovarian Cancer; assay type: cell-based
A498 = assay: NCI In-Vitro Testing, Renal Cancer; assay type: cell-based
CAKI-1 = assay: NCI In-Vitro Testing, Renal Cancer; assay type: cell-based
TK-10 = assay: NCI In-Vitro Testing, Renal Cancer; assay type: cell-based
UO-31 = assay: NCI In-Vitro Testing, Renal Cancer; assay type: cell-based
DU-145 = assay: NCI In-Vitro Testing, Prostate Cancer; assay type: cell-based
NCWADR-RES = assay: NCI In-Vitro Testing, Breast Cancer; assay type: cell-based
BT-549 = assay: NCI In-Vitro Testing, Breast Cancer; assay type: cell-based

Sequence of Flk-1 kinase (P35968 20-1356): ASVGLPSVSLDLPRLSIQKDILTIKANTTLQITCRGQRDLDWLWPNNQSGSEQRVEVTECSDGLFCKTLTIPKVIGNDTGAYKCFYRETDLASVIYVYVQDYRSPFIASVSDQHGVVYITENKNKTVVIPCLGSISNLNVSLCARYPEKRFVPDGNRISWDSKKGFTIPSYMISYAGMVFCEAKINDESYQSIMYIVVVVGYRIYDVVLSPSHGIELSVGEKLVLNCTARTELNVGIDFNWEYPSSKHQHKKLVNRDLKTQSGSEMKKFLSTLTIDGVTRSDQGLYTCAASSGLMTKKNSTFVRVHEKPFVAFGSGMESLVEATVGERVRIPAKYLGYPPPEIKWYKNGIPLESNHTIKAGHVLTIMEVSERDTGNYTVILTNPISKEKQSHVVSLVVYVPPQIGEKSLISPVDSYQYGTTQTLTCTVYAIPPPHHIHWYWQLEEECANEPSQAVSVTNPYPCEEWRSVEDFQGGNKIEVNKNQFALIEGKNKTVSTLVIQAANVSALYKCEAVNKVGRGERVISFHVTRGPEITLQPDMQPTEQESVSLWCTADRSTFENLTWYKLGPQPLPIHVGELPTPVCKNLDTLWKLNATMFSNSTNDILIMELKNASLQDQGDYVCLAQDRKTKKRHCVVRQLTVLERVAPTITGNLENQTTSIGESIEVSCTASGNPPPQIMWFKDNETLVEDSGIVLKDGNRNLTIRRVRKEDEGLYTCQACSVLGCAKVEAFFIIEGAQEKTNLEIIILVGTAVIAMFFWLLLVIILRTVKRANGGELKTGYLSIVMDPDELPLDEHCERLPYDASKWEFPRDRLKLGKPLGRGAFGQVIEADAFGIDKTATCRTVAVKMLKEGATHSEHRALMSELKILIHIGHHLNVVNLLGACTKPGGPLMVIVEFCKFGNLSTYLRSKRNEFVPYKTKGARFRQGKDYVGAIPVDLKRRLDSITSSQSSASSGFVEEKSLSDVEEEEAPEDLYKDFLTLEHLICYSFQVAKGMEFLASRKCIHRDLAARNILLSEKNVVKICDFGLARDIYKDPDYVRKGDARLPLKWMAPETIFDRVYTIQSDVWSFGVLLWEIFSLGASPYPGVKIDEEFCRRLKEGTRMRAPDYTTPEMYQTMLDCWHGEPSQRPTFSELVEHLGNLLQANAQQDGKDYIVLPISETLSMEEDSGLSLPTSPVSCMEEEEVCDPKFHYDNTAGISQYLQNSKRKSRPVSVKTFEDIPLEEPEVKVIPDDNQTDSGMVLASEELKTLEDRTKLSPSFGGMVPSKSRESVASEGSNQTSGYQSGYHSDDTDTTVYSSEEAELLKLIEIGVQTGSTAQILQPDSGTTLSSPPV
Sequence of EGFR kinase (P00533 25-1210): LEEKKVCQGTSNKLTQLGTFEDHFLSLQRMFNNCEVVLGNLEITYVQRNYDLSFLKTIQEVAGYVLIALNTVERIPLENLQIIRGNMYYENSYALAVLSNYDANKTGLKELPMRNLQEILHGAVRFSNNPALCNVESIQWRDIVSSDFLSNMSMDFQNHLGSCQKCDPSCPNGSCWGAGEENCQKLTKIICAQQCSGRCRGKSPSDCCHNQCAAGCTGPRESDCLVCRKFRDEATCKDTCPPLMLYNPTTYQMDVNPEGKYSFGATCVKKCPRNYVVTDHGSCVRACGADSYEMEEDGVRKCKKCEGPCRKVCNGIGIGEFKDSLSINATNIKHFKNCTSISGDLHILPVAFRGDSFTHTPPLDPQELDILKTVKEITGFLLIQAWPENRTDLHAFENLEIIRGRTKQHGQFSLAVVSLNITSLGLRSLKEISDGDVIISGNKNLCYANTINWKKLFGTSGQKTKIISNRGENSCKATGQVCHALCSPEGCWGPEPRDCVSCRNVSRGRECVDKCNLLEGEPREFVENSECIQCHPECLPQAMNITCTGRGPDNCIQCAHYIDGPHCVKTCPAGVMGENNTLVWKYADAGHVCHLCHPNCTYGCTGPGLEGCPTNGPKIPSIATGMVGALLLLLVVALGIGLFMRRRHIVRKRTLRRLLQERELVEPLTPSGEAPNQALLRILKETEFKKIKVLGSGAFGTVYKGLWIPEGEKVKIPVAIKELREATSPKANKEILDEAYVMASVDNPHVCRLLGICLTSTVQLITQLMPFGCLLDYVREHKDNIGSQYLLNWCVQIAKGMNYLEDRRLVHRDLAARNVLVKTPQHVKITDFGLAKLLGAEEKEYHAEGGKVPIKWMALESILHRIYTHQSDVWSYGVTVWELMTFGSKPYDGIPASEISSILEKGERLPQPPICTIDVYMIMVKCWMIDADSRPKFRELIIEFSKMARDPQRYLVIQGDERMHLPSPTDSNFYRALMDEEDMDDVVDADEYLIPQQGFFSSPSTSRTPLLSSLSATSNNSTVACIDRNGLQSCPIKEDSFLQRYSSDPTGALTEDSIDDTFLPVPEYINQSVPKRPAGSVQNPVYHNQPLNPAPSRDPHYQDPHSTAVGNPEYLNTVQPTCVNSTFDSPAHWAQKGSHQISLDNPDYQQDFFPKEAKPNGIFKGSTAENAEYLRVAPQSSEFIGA

## Nc1nc2c(c(Nc3ccc(Cl)cc3)n1)-c1ccccc1C2 [AAG145-136]
EGFR kinase
  IC50: 26 µM
Flk-1 kinase
  IC50: > 200 µM
B16-F10 tumors
  antitumor activity (tumor volume, tumor growth rate): potent antitumor activity
HOP-52
  GI50: 6.54E−7 Molar
  LC50: >1.00E−4 Molar
  TGI: >1.00E−4 Molar
HOP-52; Log10 Concentration −4.0 Molar
  Percent Growth: 32%
HOP-52; Log10 Concentration −5.0 Molar
  Percent Growth: 25%
HOP-52; Log10 Concentration −6.0 Molar
  Percent Growth: 40%
HOP-52; Log10 Concentration −7.0 Molar
  Percent Growth: 94%
HOP-52; Log10 Concentration −8.0 Molar
  Percent Growth: 97%
KM12
  GI50: 3.30E−7 Molar
  LC50: >1.00E−4 Molar
  TGI: >1.00E−4 Molar
KM12; Log10 Concentration −4.0 Molar
  Percent Growth: 5%
KM12; Log10 Concentration −5.0 Molar
  Percent Growth: 7%
KM12; Log10 Concentration −6.0 Molar
  Percent Growth: 25%
KM12; Log10 Concentration −7.0 Molar
  Percent Growth: 77%
KM12; Log10 Concentration −8.0 Molar
  Percent Growth: 98%
SF-258
  GI50: 8.62E−8 Molar
  LC50: >1.00E−4 Molar
  TGI: >1.00E−4 Molar
SF-258; Log10 Concentration −4.0 Molar
  Percent Growth: 21%
SF-258; Log10 Concentration −5.0 Molar
  Percent Growth: 19%
SF-258; Log10 Concentration −6.0 Molar
  Percent Growth: 27%
SF-258; Log10 Concentration −7.0 Molar
  Percent Growth: 45%
SF-258; Log10 Concentration −8.0 Molar
  Percent Growth: 104%
SNB-19
  GI50: 1.13E−7 Molar
  LC50: >1.00E−4 Molar
  TGI: >1.00E−4 Molar
SNB-19; Log10 Concentration −4.0 Molar
  Percent Growth: 6%
SNB-19; Log10 Concentration −5.0 Molar
  Percent Growth: 17%
SNB-19; Log10 Concentration −6.0 Molar
  Percent Growth: 28%
SNB-19; Log10 Concentration −7.0 Molar
  Percent Growth: 51%
SNB-19; Log10 Concentration −8.0 Molar
  Percent Growth: 100%
U251
  GI50: 1.84E−7 Molar
  LC50: >1.00E−4 Molar
  TGI: 5.66E−5 Molar
U251; Log10 Concentration −4.0 Molar
  Percent Growth: −6%
U251; Log10 Concentration −5.0 Molar
  Percent Growth: 19%
U251; Log10 Concentration −6.0 Molar
  Percent Growth: 29%
U251; Log10 Concentration −7.0 Molar
  Percent Growth: 53%
U251; Log10 Concentration −8.0 Molar
  Percent Growth: 98%
SK-MEL-2
  GI50: 5.58E−7 Molar
  LC50: >1.00E−4 Molar
  TGI: >1.00E−4 Molar
SK-MEL-2; Log10 Concentration −4.0 Molar
  Percent Growth: 16%
SK-MEL-2; Log10 Concentration −5.0 Molar
  Percent Growth: 27%
SK-MEL-2; Log10 Concentration −6.0 Molar
  Percent Growth: 35%
SK-MEL-2; Log10 Concentration −7.0 Molar
  Percent Growth: 95%
SK-MEL-2; Log10 Concentration −8.0 Molar
  Percent Growth: 98%
SK-MEL-5
  GI50: 5.13E−7 Molar
  LC50: >1.00E−4 Molar
  TGI: 1.59E−5 Molar
SK-MEL-5; Log10 Concentration −4.0 Molar
  Percent Growth: −45%
SK-MEL-5; Log10 Concentration −5.0 Molar
  Percent Growth: 11%
SK-MEL-5; Log10 Concentration −6.0 Molar
  Percent Growth: 35%
SK-MEL-5; Log10 Concentration −7.0 Molar
  Percent Growth: 87%
SK-MEL-5; Log10 Concentration −8.0 Molar
  Percent Growth: 95%
OVCAR-4
  GI50: 4.16E−6 Molar
  LC50: >1.00E−4 Molar
  TGI: >1.00E−4 Molar
OVCAR-4; Log10 Concentration −4.0 Molar
  Percent Growth: 19%
OVCAR-4; Log10 Concentration −5.0 Molar
  Percent Growth: 30%
OVCAR-4; Log10 Concentration −6.0 Molar
  Percent Growth: 82%
OVCAR-4; Log10 Concentration −7.0 Molar
  Percent Growth: 84%
OVCAR-4; Log10 Concentration −8.0 Molar
  Percent Growth: 83%
OVCAR-6
  GI50: 2.16E−7 Molar
  LC50: >1.00E−4 Molar
  TGI: >1.00E−4 Molar
OVCAR-6; Log10 Concentration −4.0 Molar
  Percent Growth: 18%
OVCAR-6; Log10 Concentration −5.0 Molar
  Percent Growth: 25%
OVCAR-6; Log10 Concentration −6.0 Molar
  Percent Growth: 36%
OVCAR-6; Log10 Concentration −7.0 Molar
  Percent Growth: 57%
OVCAR-6; Log10 Concentration −8.0 Molar
  Percent Growth: 102%
SK-OV-3
  GI50: 2.09E−6 Molar
  LC50: >1.00E−4 Molar
  TGI: >1.00E−4 Molar
SK-OV-3; Log10 Concentration −4.0 Molar
  Percent Growth: 16%
SK-OV-3; Log10 Concentration −5.0 Molar
  Percent Growth: 36%
SK-OV-3; Log10 Concentration −6.0 Molar
  Percent Growth: 57%
SK-OV-3; Log10 Concentration −7.0 Molar
  Percent Growth: 97%
SK-OV-3; Log10 Concentration −8.0 Molar
  Percent Growth: 106%
A498
  GI50: 2.49E−6 Molar
  LC50: >1.00E−4 Molar
  TGI: 2.85E−5 Molar
A498; Log10 Concentration −4.0 Molar
  Percent Growth: −17%
A498; Log10 Concentration −5.0 Molar
  Percent Growth: 14%
A498; Log10 Concentration −6.0 Molar
  Percent Growth: 74%
A498; Log10 Concentration −7.0 Molar
  Percent Growth: 91%
A498; Log10 Concentration −8.0 Molar
  Percent Growth: 101%
CAKI-1
  GI50: 1.08E−6 Molar
  LC50: >1.00E−4 Molar
  TGI: >1.00E−4 Molar
CAKI-1; Log10 Concentration −4.0 Molar
  Percent Growth: 15%
CAKI-1; Log10 Concentration −5.0 Molar
  Percent Growth: 25%
CAKI-1; Log10 Concentration −6.0 Molar
  Percent Growth: 51%
CAKI-1; Log10 Concentration −7.0 Molar
  Percent Growth: 97%
CAKI-1; Log10 Concentration −8.0 Molar
  Percent Growth: 105%
TK-10
  GI50: 2.15E−6 Molar
  LC50: >1.00E−4 Molar
  TGI: >1.00E−4 Molar
TK-10; Log10 Concentration −4.0 Molar
  Percent Growth: 27%
TK-10; Log10 Concentration −5.0 Molar
  Percent Growth: 34%
TK-10; Log10 Concentration −6.0 Molar
  Percent Growth: 58%
TK-10; Log10 Concentration −7.0 Molar
  Percent Growth: 113%
TK-10; Log10 Concentration −8.0 Molar
  Percent Growth: 110%
UO-31
  GI50: 7.90E−7 Molar
  LC50: >1.00E−4 Molar
  TGI: >1.00E−4 Molar
UO-31; Log10 Concentration −4.0 Molar
  Percent Growth: 31%
UO-31; Log10 Concentration −5.0 Molar
  Percent Growth: 31%
UO-31; Log10 Concentration −6.0 Molar
  Percent Growth: 46%
UO-31; Log10 Concentration −7.0 Molar
  Percent Growth: 88%
UO-31; Log10 Concentration −8.0 Molar
  Percent Growth: 105%
DU-145
  GI50: 2.12E−7 Molar
  LC50: >1.00E−4 Molar
  TGI: >1.00E−4 Molar
DU-145; Log10 Concentration −4.0 Molar
  Percent Growth: 7%
DU-145; Log10 Concentration −5.0 Molar
  Percent Growth: 18%
DU-145; Log10 Concentration −6.0 Molar
  Percent Growth: 37%
DU-145; Log10 Concentration −7.0 Molar
  Percent Growth: 56%
DU-145; Log10 Concentration −8.0 Molar
  Percent Growth: 95%
NCWADR-RES
  GI50: 7.87E−7 Molar
  LC50: >1.00E−4 Molar
  TGI: >1.00E−4 Molar
NCWADR-RES; Log10 Concentration −4.0 Molar
  Percent Growth: 24%
NCWADR-RES; Log10 Concentration −5.0 Molar
  Percent Growth: 29%
NCWADR-RES; Log10 Concentration −6.0 Molar
  Percent Growth: 44%
NCWADR-RES; Log10 Concentration −7.0 Molar
  Percent Growth: 100%
NCWADR-RES; Log10 Concentration −8.0 Molar
  Percent Growth: 100%
BT-549
  GI50: 2.83E−6 Molar
  LC50: >1.00E−4 Molar
  TGI: 7.58E−5 Molar
BT-549; Log10 Concentration −4.0 Molar
  Percent Growth: −4%
BT-549; Log10 Concentration −5.0 Molar
  Percent Growth: 32%
BT-549; Log10 Concentration −6.0 Molar
  Percent Growth: 65%
BT-549; Log10 Concentration −7.0 Molar
  Percent Growth: 85%
BT-549; Log10 Concentration −8.0 Molar
  Percent Growth: 103%
